# Reference: PMC7987348, “Structural basis for human TRPC5 channel inhibition by two distinct inhibitors” (eLife, 2021)
# Substitutions are numbered along the chain they refer to. Where two headings read alike, the source gives them in different places.
# What was measured:
# hTRPC5 = molecular target: T1, hTRPC5 (Homo sapiens, UniProt Q9UL62); test: Whole cell recording of EA-elicited hTRPC5 currents in low calcium condition; conditions: 50 μM CMZ; 200 nM EA; 1 mM EGTA and 1 mM EDTA to chelate intracellular Ca2+; −60 mV
# T1 sequence (Q9UL62 1-973): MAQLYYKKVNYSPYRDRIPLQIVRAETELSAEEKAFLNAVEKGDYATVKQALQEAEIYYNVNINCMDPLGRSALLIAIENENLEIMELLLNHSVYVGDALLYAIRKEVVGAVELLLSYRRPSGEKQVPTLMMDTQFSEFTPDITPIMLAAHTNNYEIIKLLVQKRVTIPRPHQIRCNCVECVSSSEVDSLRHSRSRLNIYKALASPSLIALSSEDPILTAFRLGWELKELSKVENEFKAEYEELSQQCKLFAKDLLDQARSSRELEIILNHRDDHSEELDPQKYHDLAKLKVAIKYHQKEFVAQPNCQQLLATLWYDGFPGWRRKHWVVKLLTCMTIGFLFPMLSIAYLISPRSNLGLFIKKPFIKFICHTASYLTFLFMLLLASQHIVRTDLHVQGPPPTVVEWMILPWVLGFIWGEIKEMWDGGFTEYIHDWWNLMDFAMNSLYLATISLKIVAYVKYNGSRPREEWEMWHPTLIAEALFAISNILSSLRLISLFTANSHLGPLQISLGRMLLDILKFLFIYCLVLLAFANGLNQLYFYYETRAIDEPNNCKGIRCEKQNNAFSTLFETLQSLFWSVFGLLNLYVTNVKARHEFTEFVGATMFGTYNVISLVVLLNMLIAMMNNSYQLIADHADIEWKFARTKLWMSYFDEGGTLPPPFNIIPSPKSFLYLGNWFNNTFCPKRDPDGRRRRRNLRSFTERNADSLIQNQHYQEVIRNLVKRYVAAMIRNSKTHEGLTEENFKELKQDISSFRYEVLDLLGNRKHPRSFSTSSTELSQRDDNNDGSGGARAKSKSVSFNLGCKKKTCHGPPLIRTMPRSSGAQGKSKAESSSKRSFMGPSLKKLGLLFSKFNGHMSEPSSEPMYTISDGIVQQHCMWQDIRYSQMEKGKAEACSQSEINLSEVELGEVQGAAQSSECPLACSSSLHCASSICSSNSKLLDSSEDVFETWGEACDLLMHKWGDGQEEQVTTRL
# TRPC7 = system: TRPC7; design: method as in Richter et al., 2014; conditions: ref Richter et al., 2014; cited from earlier work
# hTRPC5 WT = molecular target: T2, hTRPC5 WT (Homo sapiens, UniProt Q9UL62); test: FLIPR calcium assay, inhibition of extracellular calcium-induced intracellular calcium increase; format: cell-based
# T2 construct: We use full-length nontagged hTRPC5 construct for FLIPR assay unless indicated otherwise; expressed in transfected cells; host or cells: AD293
# T2 sequence (Q9UL62 1-973): T1 sequence (Q9UL62 1-973)
# hTRPC5 F414M = molecular target: T3, hTRPC5 F414M (Homo sapiens, UniProt Q9UL62, F414M); test: FLIPR calcium assay, hTRPC5 mutant F414M; format: cell-based
# T3 construct: We use full-length nontagged hTRPC5 construct for FLIPR assay unless indicated otherwise; expressed in transfected cells; host or cells: AD293
# T3 sequence (Q9UL62 1-973 F414M): T1 sequence (Q9UL62 1-973) with F414M
# Procedure: […]. Then the suspended cell culture was further diluted for 5.4- to 7-fold with culture medium and seeded onto black well, clear bottom, poly-D-lysine-coated 96-well plate (Costar) and cultured overnight. We use full-length nontagged hTRPC5 construct for FLIPR assay unless indicated otherwise. hTRPC5 plasmids were transfected into AD293 cells (60-80% confluence) with PEI. 30–40 hr post-transfection, culture medium was discarded and cells were incubated with 50 μl per well of 4 μM Rhod-2/AM (AAT Bioquest) in TARODES’s buffer (10 mM HEPES, 150 mM NaCl, 4 mM KCl, 2 mM MgCl2, 2 mM CaCl2, 11 mM glucose, pH 7.4) supplemented with 0.02% Pluronic F-127 (Sigma) for 5 min in dark at room temperature. Then dye was removed and replaced with 50 μl of TARODE’s buffer per well. The application of compounds and detection of intracellular calcium elevation were performed using FLIPR-TETRA (Molecular Devices) at room temperature (25–27°C). Fluorescence signals were read with excitation/emission at 510–545/565–625 nm.
# […]. Then fluorescence was measured for 300 s.
# Buffer A contains 2× concentration of working concentration of inhibitor. […]. for control-Min, both buffer A and buffer B were replaced by TARODE’s buffer.
# […]; the average of fluorescence value of last 20 time points was considered as the ‘end fluorescence’. The value of ‘end fluorescence’ minus ‘start fluorescence’ was considered as ‘signal value’ for each well. […].
# Three independent experiments were performed on different days (biological replicates), with each experiment containing three replicates (technique replicates).
# [1] = CMZ, 14 mM extracellular calcium, read-out: IC50
# [2] = CMZ, log of IC50 in μM, logIC50 ± SEM, n = 3, read-out: LogIC50 (converted)
# [3] = read-out: normalized RFU (% WT), Clemizole 0.200195 μM, 14 mM Ca2+, each column one independent experiment
# [4] = read-out: normalized RFU (% WT), Clemizole 0.800781 μM, 14 mM Ca2+, each column one independent experiment
smiles,measurement,setting,value
"Clc1ccc(Cn2c(CN3CCCC3)nc3ccccc32)cc1 [CMZ, clemizole]",inhibition of EA-elicited currents,hTRPC5,could inhibit EA-elicited currents
same,fold more potent against TRPC5 than TRPC7,TRPC7,26 fold
same,Hill slope,hTRPC5 WT; CMZ,−2.52
same,IC50,hTRPC5 WT; [1],3.07 µM
same,IC50,hTRPC5 WT; [2],3.09 µM
same,remaining activity at 0.200195 µM,hTRPC5 WT; [3],76.4%
same,remaining activity at 0.800781 µM,hTRPC5 WT; [4],72.6%
same,remaining activity at 1.60156 µM,"hTRPC5 WT; read-out: normalized RFU (% WT), Clemizole 1.60156 μM, 14 mM Ca2+, each column one independent experiment",70.5%
same,Hill slope,hTRPC5 F414M; CMZ,−1.45
same,IC50,hTRPC5 F414M; [1],2.15 µM
same,IC50,hTRPC5 F414M; [2],2.14 µM
same,remaining activity at 0.200195 µM,hTRPC5 F414M; [3],130%
same,remaining activity at 0.400391 µM,"hTRPC5 F414M; read-out: normalized RFU (% WT), Clemizole 0.400391 μM, 14 mM Ca2+, each column one independent experiment",116%
same,remaining activity at 0.800781 µM,hTRPC5 F414M; [4],107%
same,remaining activity at 6.40625 µM,"hTRPC5 F414M; read-out: normalized RFU (% WT), Clemizole 6.40625 μM, 14 mM Ca2+, each column one independent experiment",32.1%
